The values below come from a melting point compilation (Tetko et al.; mined from patent text by program, amines drawn as free bases though some values may be those of a salt).

Turning to `CCN(CCO)Cc1cc(Nc2nc(Nc3cc4c(cc3OC)CCN(CC(=O)N(C)C)CC4)ncc2Cl)ccc1F`, the melting point fell in the range of 71 to 75 °C.
As for `Cc1c(C(=O)N(N)c2ccccc2)nn(-c2ccc(Cl)cc2Cl)c1-c1ccc(Cl)s1`, the melting point fell in the range of 154 to 155 °C.
`CCC(NC(C)=O)c1ccc(CN2CCN(c3ccc(F)cc3F)CC2)cc1` (centres undefined) showed a melting point of 137 to 138 °C.
Turning to `CC(C)n1nc(-c2c(-c3ccccc3)nn3ccc(N4CCN(C(=O)c5ccccc5)CC4)cc23)ccc1=O`, the melting point lay within 124 to 126 °C.
With `Fc1ccc2[nH]c3c4ccccc4nc-3cc2c1`, the melting point is above 246 °C.
Consider `CCCCOC1CCCC(C2NC(=O)C2C(C)O[Si](C)(C)C(C)(C)C)C1O` (centres undefined), for which the melting point lay in the range of 105 to 106 °C.
`Cc1cc(N(C)Cc2oc(-c3ccc(C(F)(F)F)cc3)nc2C)ccc1OCC(=O)O` yielded a melting point of 156 to 157 °C.
`CCOC(=O)CCc1nc(-c2ccccc2)cc2ccccc12`: the melting point was determined as 60 °C.
`c1ccc2c(c1)CC1(C3=NCCN3)CC21` (single isomer, unassigned; (+)) had a melting point of 245 to 247 °C.
On to `CCCN(CCC)c1c(CC)nn2c(-c3ccc(N(C)C)cc3Cl)cccc12`, for which the melting point was in the range of 133 to 134 °C.
In the case of `O=C1N(Nc2ccccc2)C(=S)OC12c1ccccc1-c1ccccc12` it was 187 to 189 °C; in that of `CN(C)c1cccc(OCC(=O)c2cccc(Cl)c2)c1`, 101 to 103 °C; in that of `CN1C(=O)C2(COc3cc4c(cc32)OCCO4)c2c(C#N)cccc21` (centres undefined), 196 to 197 °C.
In turn, `COc1cc(C(=O)c2c(N)sc3c2CCN(C(=O)c2ccccc2)C3)ccc1OC(C)C` registered a melting point of 158 to 160 °C.
`O=C1Nc2ccccc2C(=O)N2CC[C@@H]12` displayed a melting point of 217 to 218 °C.
Compound `CC(=O)c1c(C)[nH]c(C2CCCCC2)c1C` had a melting point of 186 to 188 °C.
In the case of `CONC(=O)c1cnn(-c2ccccc2)c1Br` it was 194 to 197 °C; in that of `Cc1cn(C(C)C(N)=O)nc1-c1ccccc1` (centres undefined), 99 to 101 °C.
In turn, `O=c1ccn(C2OC(C(O)CO)C(O)C2O)c(=O)[nH]1` (centres undefined) had a melting point of 175 to 176 °C.
`CCOc1ccc(Oc2ccc(OCc3cc(F)ccc3F)cc2)c(N)c1` had a melting point of 72 to 73.5 °C.
Next, `COc1cc(Cl)c(/C(=N\O)c2ccccc2F)cc1Cl`: 188 °C; `NC(=O)CCC(C(=O)O)N1C(=O)c2cccc(NCc3ccco3)c2C1=O` (centres undefined): 114 to 116 °C; `Cc1ccc2[nH]c3c(c2c1)CC(C)CC3` (centres undefined): 112 °C.
`COC(=O)c1ccc(-c2cc(CCNC(C)=O)c3cc(OC)ccc3c2)cc1` yielded a melting point of 147 to 149 °C.
In turn, `Cc1ccc(NC(=O)N2CCN(CCc3ccc(-c4cccc(N)n4)cc3)CC2)cc1C` came in with a melting point of 122 to 125 °C.
Take `CC(C)CCCC(C)C1CC=C2C3=C(CCC21C)C1(C)CCC(C(=O)c2ccncc2)CC1CC3` (centres undefined): the melting point fell in the range of 129 to 131 °C.
In the case of `CCCCC(=O)OC(C)OC(=O)NC1(C(=O)O)CC1` (centres undefined) it was 148 to 151 °C; in that of `C=CCC(C)(C)C(O)C(c1cccc(OC)c1)n1ccnc1` (centres undefined), 83 °C; in that of `NC(=O)c1nnn(Cc2cc(Cl)c(Sc3ccc(Cl)cc3)c(Cl)c2)c1N`, 180 to 182 °C.
Turning to `Nc1c(Cl)ccc2c1C=C(C(=O)O)C(C(F)(F)F)O2` (centres undefined), the melting point fell in the range of 208 to 210 °C.
In turn, `O=C1Nc2ccccc2SC1c1ccccc1Cl` (centres undefined) showed a melting point of 200 °C.
Compound `CCCCOc1c(CNC(=O)OC(C)(C)C)n(CC(C)C)c(=O)c2ccc(-n3ccnn3)cc12` yielded a melting point of 190 to 191 °C.
For `CCCNC(=O)C1(O)CC(O)C(O)C(O)C1` (centres undefined), the melting point lay in the range of 132 to 133 °C.
With `CCc1cc2c(s1)SCCc1cc(=O)n(-c3ccc(OC)cc3)nc1-2`, the melting point is 141 to 143 °C.
`CN1COc2cc(CCCN3CCOCC3)cnc21`: the melting point was below 80 °C.
The compound `Cc1ccc(CS(=O)c2nc3cc4c(cc3[nH]2)OC(F)C(F)(F)O4)nc1` (centres undefined) gave a melting point of 186 to 187 °C.
Turning to `CN(CC1(C)Cn2cc([N+](=O)[O-])nc2O1)C(=O)OCc1ccc(F)cc1` (centres undefined), the melting point is 169 to 170 °C.
With `CCSCC(=O)N1CCSC1COc1ccc(OC)cc1` (centres undefined), the melting point lay in the range of 98 to 110 °C.
Compound `CCOC(=O)c1cc2c(nc1C(=O)OCC)OCC2O` (centres undefined) gave a melting point of 73 to 77 °C.
Consider `COc1ccc(-c2[nH]c3ccccc3c(=O)c2C(=O)O)cc1`, for which the melting point was above 300 °C.
For `CN1CCN(C(c2ccccc2)c2ccccc2)CC1(C)Cc1ccc2c(c1)OCCO2` (centres undefined), the melting point lay within 118 to 120 °C.
`CCOC(=O)CN1C(=O)C2(COc3cc4c(cc32)OCCO4)c2ccccc21` (centres undefined): the melting point lay in the range of 58 to 59 °C.
Turning to `CC(N(O)C(N)=O)C1(OCc2nc3ccccc3s2)C=CC(c2ccccc2)=CC1` (centres undefined), the melting point lay in the range of 190 to 191 °C.
On to `CC1(C)N=C(c2ccccc2F)c2cc([N+](=O)[O-])cc(Cl)c2NC1=O`, for which the melting point was 142 to 143 °C.
With `CCn1nc(C)c2c1NC(=O)CC2C` (centres undefined), the melting point is 141 to 142 °C.
`CC(=O)c1ccc(C2=C(c3ccc(S(C)(=O)=O)cc3)OC3(CCCC3)C2=O)cc1`: the melting point is 126 to 130 °C.
With `COc1cccc(-c2cc(=O)c3ccccc3[nH]2)c1SCc1ccccc1`, the melting point is above 250 °C.
`CCN(C)C1CCCN(C(=O)c2ccc(NC(=O)c3ccccc3C)cc2)c2ccccc21` (centres undefined): the melting point fell in the range of 192 to 193 °C.
In the case of `Cc1ccc(F)cc1C(=O)Nc1ccc(C(=O)N2CCC=Cc3sccc32)c(Cl)c1` it was 125 to 132 °C.
On to `O=C1Nc2ccccc2C12COc1cc(F)c(F)cc12` (centres undefined), for which the melting point was above 200 °C.
In the case of `COC(=O)C1Cc2c([nH]c3ccccc23)C(c2ccc(OC)c(O)c2)N1` (centres undefined), the melting point fell in the range of 140 to 148 °C.
As for `CCOc1nn(C(=O)NS(=O)(=O)c2c(C)csc2C)c(=O)n1C`, the melting point came out at 158 °C.
As to `Cn1c([N+](=O)[O-])cnc1C=O`, the melting point is 90 to 94 °C.
Next, `CN(C)c1cncc(-c2nc(=O)c3ccccc3s2)n1`: 248 to 249 °C.
In the case of `CCOP(=O)(OCC)C(CCc1cc(C)nc2c(I)c(-c3ccccc3)nn12)P(=O)(OCC)OCC` it was 81 to 82 °C.
The compound `O=C1CN(c2nccnc2[N+](=O)[O-])CCN1` displayed a melting point of 178 to 179 °C.
`CCCCCCCCCCN1CCN(O)C1=O` returned a melting point of 68 to 69 °C.
Next, `COc1cnc(CS(C)(=O)=O)nc1O`: 230 °C; `CCOC(=O)C1=C(S(=O)(=O)Cl)CCCC1`: 31.5 to 32.5 °C; `COC(=O)c1cccc(F)c1O`: 94 to 95 °C.
In the case of `CN(CCNc1ccc([N+](=O)[O-])cc1)S(C)(=O)=O` it was 109 °C.
Turning to `CCOP(=O)(Cn1c(=O)c(=O)[nH]c2cc([N+](=O)[O-])ccc21)OCC`, the melting point came to 197 °C.
Regarding `O=C(O)CCc1cc2cc(Cl)c(Cl)cc2n1S(=O)(=O)c1ccccc1`, the melting point lay within 192 to 198 °C.
In the case of `CC(Cc1c[nH]c2ccccc12)(NC(=O)OC1C2CC3CC(C2)CC1C3)C(=O)NCC(=NOCC(=O)O)c1ccccc1` (centres undefined) it was 138 to 142 °C.
